Results on ten molecules are retold here after article PMC9607427, “Novel 7-Chloro-(4-thioalkylquinoline) Derivatives: Synthesis and Antiproliferative Activity through Inducing Apoptosis and DNA/RNA Damage” (Pharmaceuticals, 2022).

Series [1] concerns eight human cancer and 4 non-tumor cell lines. The series can be described thus: Cytotoxic MTS assay, whole panel of tested cell lines. Type of series: cell-based. As for the experimental part: (§1) In vitro cytotoxic activity of final compounds 5–82 was evaluated after 3 days of incubation against eight cell lines derived from human solid tumors including lung (A549 cells) and colon (HCT116 and HCT116p53−/−) carcinomas, as well as leukemia cell lines (CCRF-CEM, CEM-DNR, K562, and K562-TAX) and osteosarcoma (U2OS cells). For comparison, non-malignant BJ and MRC-5 fibroblasts, and BJLD and MCR-5LD fibroblasts doxorubicin-resistant cell lines were used. Concentrations inhibiting the cell growth by 50% (IC50) were determined using a quantitative metabolic staining with 3-(4,5-dimethylthiazol-2yl)-5-(3-carboxymethoxyphenyl)-2-(4-sulfophenyl)-2H-tetrazolium (MTS) and are summarized in (Table 3).
(§2) Cytotoxic activity was determined by MTS assay following 72 h of incubation. IC50 is the lowest concentration that kills 50% of cells. The standard deviation in cytotoxicity assays is typically up to 20% of the average value. […] The tested cell lines: A549 (lung adenocarcinoma), BJ (noncancerous human fibroblasts from foreskin), BJLD (human lung fibroblast doxorubicin-resistant), CCRF-CEM (childhood T cell acute lymphoblastic leukemia), a daunorubicin-resistant subline of CCRF-CEM cells (CEM-DNR bulk), HCT116 (colorectal carcinoma), HCT116p53−/− (HCT116 with deleted p53 gene), K562 (chronic myeloid leukemia), K562-TAX (chronic myeloid leukemia paclitaxel-resistant subline), MRC-5 (noncancerous human lung fibroblasts), MRC-5LD (noncancerous human lung fibroblasts doxorubicin-resistant), and U2OS (osteosarcoma).
(§3) All cell lines were purchased from the American Tissue Culture Collection (ATCC). The A549 cell line is lung adenocarcinoma. MRC-5 and BJ cell lines were used as a non-tumor control and represent human fibroblasts. (MRC-5 LD and BJLD) are doxorubicin-resistant human lung fibroblast cell lines. The CCRF-CEM line is derived from T lymphoblastic leukemia, evincing high chemosensitivity, whereas K562 represent cells from an […] patient sample with bcr-abl translocation. The daunorubicin-resistant subline of CCRF-CEM cells (CEM-DNR bulk) and paclitaxel-resistant subline K562-TAX were selected in our laboratory by the cultivation of maternal cell lines in increasing concentrations of daunorubicin or paclitaxel, respectively. The CEM-DNR bulk cells overexpress MRP-1 and P-glycoprotein protein, whereas K562-TAX cells overexpress P-glycoprotein only. Both proteins belong to the family of ABC transporters and are involved in the primary and/or acquired multidrug-resistance phenomenon. The U2OS cell line is derived from osteosarcoma, HCT116 is a colorectal tumor cell line and its p53 gene knock-down counterpart (HCT116p53−/−, Horizon Discovery Ltd., Cambridge, UK) is a model of human cancers with p53 mutation frequently associated with poor prognosis. The cells were maintained in nunc/corning 80 cm^2 plastic tissue culture flasks and cultured in a cell culture medium according to ATCC or Horizon recommendations (DMEM/RPMI 1640 with 5 g/L glucose, 2 mM glutamine, 100 U/mL penicillin, […], 10% fetal calf serum, and NaHCO3).
(§4) The activity of compounds was determined using a standard 3-(4,5-dimethylthiazol-2-yl)-5-(3-carboxymethoxyphenyl)-2-(4-sulfophenyl)-2H-tetrazolium (MTS) and it was performed at the Institute of Molecular and Translational Medicine by a robotic platform (High-ResBiosolutions). Cell suspensions were prepared and diluted according to the particular cell type and the expected target cell density (25,000–35,000 cells/mL based on cell growth characteristics). Cells were added by automatic pipettor (30 µL) into 384-well microtiter plates. All tested compounds were dissolved in 100% DMSO and four-fold dilutions of the intended test concentration were added in 0.15 µL aliquots at time zero to the microtiter plate wells by the echo acoustic non-contact liquid handler Echo550 (Labcyte). […]

For series [2], the system named is A549 (lung adenocarcinoma). The series can be described thus: Cytotoxic MTS assay, A549. The following applies: Homo sapiens, A549; MTS, 72 h of incubation; read-out: Cytotoxic activity IC50, A549. Type of series: cell-based, human. On the procedure:
as §1, §2, §3, §4

The nature of another series: Cytotoxic MTS assay, BJ. The format is cell-based, human. As to conditions: human, BJ cells (noncancerous foreskin fibroblasts); MTS, 72 h of incubation. On the procedure:
as §1, §2, §3, §4

Series [3] can be described thus: Cytotoxic MTS assay, BJLD. The format is cell-based, human. The following applies: human, BJLD cells (fibroblasts, doxorubicin-resistant); MTS, 72 h of incubation. As for the experimental part:
as §1, §2, §3, §4

Series [4] deals with CCRF-CEM (childhood T cell acute lymphoblastic leukemia). The series can be described thus: Cytotoxic MTS assay, CCRF-CEM. Type of series: cell-based, human. As to conditions: Homo sapiens, CCRF-CEM; MTS, 72 h of incubation; read-out: Cytotoxic activity IC50, CCRF-CEM. As for the experimental part: as §1, §2, §3, §4
Series [5] concerns CEM-DNR bulk (daunorubicin-resistant subline of CCRF-CEM cells). Description: Cytotoxic MTS assay, CEM-DNR. Type of series: cell-based, human. As to conditions: Homo sapiens, CEM-DNR; MTS, 72 h of incubation; read-out: Cytotoxic activity IC50, CEM-DNR. As for the experimental part:
as §1, §2, §3, §4

For series [6], the system named is HCT116 (colorectal carcinoma). Description: Cytotoxic MTS assay, HCT116. Type of series: cell-based, human. As to conditions: Homo sapiens, HCT-116; MTS, 72 h of incubation; read-out: Cytotoxic activity IC50, HCT116. As for the experimental part:
as §1, §2, §3, §4

The test system of series [7] is HCT116p53−/− (HCT116 with deleted p53 gene). Description: Cytotoxic MTS assay, HCT116p53−/−. Type of series: cell-based, human. The following applies: Homo sapiens, HCT-116; MTS, 72 h of incubation; read-out: Cytotoxic activity IC50, HCT116-p53. As for the experimental part: as §1, §2, §3, §4
Series [8] concerns K562 (chronic myeloid leukemia). The series can be described thus: Cytotoxic MTS assay, K562. The format is cell-based, human. The following applies: Homo sapiens, K562; MTS, 72 h of incubation; read-out: Cytotoxic activity IC50, K562. On the procedure:
as §1, §2, §3, §4

For series [9], the system named is K562-TAX (chronic myeloid leukemia paclitaxel-resistant subline). The series can be described thus: Cytotoxic MTS assay, K562-TAX. The following applies: Homo sapiens, K562-Tax; MTS, 72 h of incubation; read-out: Cytotoxic activity IC50, K562-TAX. The format is cell-based, human. As for the experimental part: as §1, §2, §3, §4
A short description of series [10]: Cytotoxic MTS assay, MRC-5. Type of series: cell-based, human. The following applies: human, MRC-5 cells (noncancerous lung fibroblasts); MTS, 72 h of incubation. As for the experimental part:
as §1, §2, §3, §4

A short description of series [11]: Cytotoxic MTS assay, MRC-5LD. Type of series: cell-based, human. As to conditions: human; MTS, 72 h of incubation; read-out: Cytotoxic activity IC50, MRC5-LD. As for the experimental part: as §1, §2, §3, §4
For the next series, the system named is U2OS (osteosarcoma). Description: Cytotoxic MTS assay, U2OS. The format is cell-based, human. The following applies: Homo sapiens, U2OS; MTS, 72 h of incubation; read-out: Cytotoxic activity IC50, U2OS. On the procedure: as §1, §2, §3, §4

SMILES strings stand for the structures.

For the molecule `Cc1ccc(C)c(C(=O)OCCS(=O)(=O)c2cc[n+]([O-])c3cc(Cl)ccc23)c1` [Compound 71, 2-[(N-Oxide 7-chloroquinolin-4-yl)sulfonyl]ethyl-,5-dimethylbenzoate], in series [1], the 50% inhibitory concentration (IC50) was more than 50 µM.
Molecule `COc1cc(OC)cc(C(=O)OCCC[S+]([O-])c2ccnc3cc(Cl)ccc23)c1` (centres unmarked) [Compound 55, 3-[(7-Chloroquinolin-4-yl)sulfinyl]propyl-,5-dimethoxybenzoate] gave an IC50 in series [1] of more than 50 µM.
In the case of `Cc1cc(C)cc(C(=O)OCC[S+]([O-])c2ccnc3cc(Cl)ccc23)c1` (centres unmarked) [Compound 50, 2-[(7-Chloroquinolin-4-yl)sulfinyl]ethyl-3,5-dimethylbenzoate], the 50% inhibitory concentration (IC50) in [2] amounted to 24 µM; in [4] it was 1.32 µM; in series [5] it was 10 µM; in [6] it was 7.99 µM; in [7], 7.1 µM; in series [8], 15.2 µM. Also, the IC50 in series [9] is 9.58 µM; in the series on U2OS (osteosarcoma), 8.57 µM. Besides, the IC50 at 72 h in the series “Cytotoxic MTS assay, BJ” was 30.8 µM; in series [3], 28.5 µM; in [10], 26.9 µM; in series [11], 22.3 µM.
As for `COc1ccccc1C(=O)OCC[S+]([O-])c1ccnc2cc(Cl)ccc12` (centres unmarked) [Compound 47, 2-[(7-Chloroquinolin-4-yl)sulfinyl]ethyl-2-methoxybenzoate], the IC50 was determined as 32.2 µM in [2]; 2.74 µM in series [4]; 26.8 µM in [5]; 15.9 µM in series [6]; 11.3 µM in series [7]; 16.9 µM in [8]. Besides, the IC50 was determined as 11.3 µM in series [9] and 19.1 µM with U2OS (osteosarcoma). For the same molecule, the IC50 at 72 h in “Cytotoxic MTS assay, BJ” came to 31.2 µM; in series [3] it was 30.7 µM; in series [10], 28.2 µM; in series [11], 26.1 µM.
Take `COc1cccc(C(=O)OCCC[S+]([O-])c2ccnc3cc(Cl)ccc23)c1OC` (centres unmarked) [Compound 54, 3-[(7-Chloroquinolin-4-yl)sulfinyl]propyl-2,3-dimethoxybenzoate]: the IC50 in [2] turned out to be 25.8 µM; in series [4] it was 1.09 µM; in [5] it was 10.1 µM; in series [6], 14 µM; in series [7] it was 9.19 µM; in series [8], 14.1 µM. The IC50 stood at 7.63 µM in series [9] and 17.2 µM in the series on U2OS (osteosarcoma). The IC50 at 72 h in “Cytotoxic MTS assay, BJ” stood at 30.4 µM; in series [3], 26.9 µM; in series [10], 27.2 µM; in series [11], 25.1 µM.
`Cc1ccc([N+](=O)[O-])c(C(=O)OCCC[S+]([O-])c2ccnc3cc(Cl)ccc23)c1` (centres unmarked) [Compound 60, 3-[(7-Chloroquinolin-4-yl)sulfinyl]propyl-5-methyl-2-nitrobenzoate]: the IC50 in [2] was determined as 9.55 µM; in series [4] it was 1.13 µM; in series [5] it was 7.27 µM; in series [6] it was 7.77 µM; in series [7] it was 6.06 µM; in series [8], 8.86 µM. Moreover, the concentration for half-maximal inhibition (IC50) amounted to 4.26 µM in series [9] and 5.81 µM in the series with U2OS (osteosarcoma). Moreover, the half-inhibitory concentration (IC50) at 72 h in “Cytotoxic MTS assay, BJ” is 29 µM; in [3], 18.1 µM; in series [10], 29.4 µM; in [11], 19.8 µM.
For the molecule `COc1cc(C(=O)OCCS(=O)(=O)c2cc[n+]([O-])c3cc(Cl)ccc23)cc(OC)c1OC` [Compound 67, 2-[(N-Oxide 7-chloroquinolin-4-yl)sulfonyl]ethyl-3,4,5-trimethoxybenzoate], the IC50 in series [2] turned out to be 28.4 µM; in series [4] it was 1.05 µM; in series [5], 8.93 µM; in series [6] it was 11.1 µM; in series [7], 7.87 µM; in [8], 6.05 µM. Also, the IC50 is 5.19 µM in [9] and 9.23 µM with U2OS (osteosarcoma). The IC50 at 72 h in the series “Cytotoxic MTS assay, BJ” was determined as 24.8 µM; in series [3], 11.9 µM; in [10], 5.79 µM; in [11] it was 3.24 µM.
In the case of `COc1ccc(C(=O)OCCC[S+]([O-])c2ccnc3cc(Cl)ccc23)cc1[N+](=O)[O-]` (centres unmarked) [Compound 59, 3-[(7-Chloroquinolin-4-yl)sulfinyl]propyl-4-methoxy-3-nitrobenzoate], the IC50 in series [2] worked out at 7.76 µM; in [4] it was 1.2 µM; in [5], 8.81 µM; in series [6], 8.86 µM; in series [7], 6.81 µM; in series [8], 8.77 µM. The IC50 in [9] was determined as 6.12 µM; in the series on U2OS (osteosarcoma), 5.15 µM. Besides, the IC50 at 72 h worked out at 21.6 µM in “Cytotoxic MTS assay, BJ”; 10.2 µM in [3]; 23.7 µM in series [10]; 10.3 µM in [11].
Regarding `Cc1cc(C)cc(C(=O)OCCC[S+]([O-])c2ccnc3cc(Cl)ccc23)c1` (centres unmarked) [Compound 61, 3-[(7-Chloroquinolin-4-yl)sulfinyl]propyl-3,5-dimethylbenzoate], the half-inhibitory concentration (IC50) in [2] came out at 10.9 µM; in series [4] it was 1.05 µM; in series [5], 8.35 µM; in [6], 8.26 µM; in series [7], 6.89 µM; in [8], 12.7 µM. Further, the IC50 in series [9] is 6.76 µM; in the series with U2OS (osteosarcoma), 8.1 µM. Also, the IC50 at 72 h in the series “Cytotoxic MTS assay, BJ” worked out at 30.3 µM; in series [3], 27.6 µM; in series [10], 26.1 µM; in series [11], 22.1 µM.
On to `COc1cc(C(=O)OCCC[S+]([O-])c2ccnc3cc(Cl)ccc23)cc(OC)c1OC` (centres unmarked) [Compound 57, 3-[(7-Chloroquinolin-4-yl)sulfinyl]propyl-3,4,5-trimethoxybenzoate], for which the IC50 in series [2] is 30.5 µM; in [4], 1.51 µM; in series [5], 16 µM; in series [6], 19.3 µM; in series [7], 14.8 µM; in [8], 17.4 µM. Further, the IC50 in series [9] was found to be 14.6 µM; in the series on U2OS (osteosarcoma) it was 21.3 µM. For the same molecule, the IC50 at 72 h in the series “Cytotoxic MTS assay, BJ” is 33 µM; in series [3] it was 31.9 µM; in series [10], 29.9 µM; in series [11], 25.8 µM.
